In patent US20220363665A1, “QUINOLINE COMPOUNDS FOR THE TREATMENT OF AUTOIMMUNE DISEASE” (Hoffmann-La Roche Inc., priority 2019, published 2022) one finds IC50 data, which are given here for 26 compounds.

In general, IC50 refers to the concentration that gives 50% inhibition.

SMILES strings stand for the structures.

The experiment has as its target T1, human TLR9 (Homo sapiens, UniProt Q9NR96).
T1 construct: host or cells: HEK293 (HEK-Blue hTLR9)
T1 sequence (Q9NR96 26-1032): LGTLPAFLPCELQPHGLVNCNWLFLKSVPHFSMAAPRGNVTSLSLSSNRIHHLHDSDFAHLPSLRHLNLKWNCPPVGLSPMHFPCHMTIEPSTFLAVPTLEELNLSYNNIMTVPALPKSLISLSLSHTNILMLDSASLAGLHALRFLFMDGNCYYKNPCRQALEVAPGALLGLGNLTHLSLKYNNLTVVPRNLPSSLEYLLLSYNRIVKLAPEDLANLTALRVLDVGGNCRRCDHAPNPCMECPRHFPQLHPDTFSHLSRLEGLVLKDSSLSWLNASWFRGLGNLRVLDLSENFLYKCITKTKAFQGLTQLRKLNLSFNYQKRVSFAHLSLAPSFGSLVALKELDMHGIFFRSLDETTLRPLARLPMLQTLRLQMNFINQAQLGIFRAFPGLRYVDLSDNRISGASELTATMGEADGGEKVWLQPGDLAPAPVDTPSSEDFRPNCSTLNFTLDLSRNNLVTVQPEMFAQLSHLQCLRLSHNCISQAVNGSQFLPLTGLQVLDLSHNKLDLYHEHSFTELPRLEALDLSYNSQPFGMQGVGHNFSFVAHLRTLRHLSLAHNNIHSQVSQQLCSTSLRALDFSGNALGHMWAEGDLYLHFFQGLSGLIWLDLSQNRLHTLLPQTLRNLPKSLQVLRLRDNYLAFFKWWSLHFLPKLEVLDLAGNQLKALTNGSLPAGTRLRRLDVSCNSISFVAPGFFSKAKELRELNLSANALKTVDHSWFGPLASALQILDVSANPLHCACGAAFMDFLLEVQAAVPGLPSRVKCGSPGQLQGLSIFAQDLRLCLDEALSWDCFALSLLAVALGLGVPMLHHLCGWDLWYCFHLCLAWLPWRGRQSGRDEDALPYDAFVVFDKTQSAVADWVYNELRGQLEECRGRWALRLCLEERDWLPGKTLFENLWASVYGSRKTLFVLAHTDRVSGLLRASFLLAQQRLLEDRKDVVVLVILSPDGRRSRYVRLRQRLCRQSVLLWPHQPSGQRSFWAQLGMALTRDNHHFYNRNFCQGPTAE
Briefly: HEK293-Blue-hTLR-9 cells assay (SEAP reporter, ODN2006 stimulation). Format: cell-based. The note with it: HEK293-Blue-hTLR9 cells, ODN2006, 20 hrs. The method, then:
The following tests were carried out in order to determine the activity of the compounds of formula (I) in HEK293-Blue-hTLR-7/8/9 cells assay.
HEK293-Blue-hTLR-9 Cells Assay:
A stable HEK293-Blue-hTLR-9 cell line was purchased from InvivoGen (Cat. #. hkb-htlr9, San Diego, Calif., USA). These cells were originally designed for studying the stimulation of human TLR9 by monitoring the activation of NF-κB. A SEAP (secreted embryonic alkaline phosphatase) reporter gene was placed under the control of the […] minimal promoter fused to five NF-κB and AP-1-binding sites. The SEAP was induced by activating NF-κB and AP-1 via stimulating HEK-Blue hTLR9 cells with TLR9 ligands. Therefore the reporter expression was declined by TLR9 antagonist under the stimulation of a ligand, such as ODN2006 (Cat. #: tlrl-2006-1, Invivogen, San Diego, Calif., USA), for incubation of 20 hrs. The cell culture supernatant SEAP reporter activity was determined using QUANTI-Blue™ kit (Cat. #: rep-qbl, Invivogen, San Diego, Calif., USA) at a wavelength of 640 nm, a detection medium that turns purple or blue in the presence of alkaline phosphatase.
HEK293-Blue-hTLR9 cells were incubated at a density of […] cells/mL in a volume of 170 μL, in a 96-well plate in Dulbecco's Modified Eagle's medium (DMEM) containing 4.5 g/L glucose, 50 U/mL penicillin, […], […], 2 mM L-glutamine, 10% (v/v) heat-inactivated fetal bovine serum with addition of 20 μL test compound in a serial dilution in the presence of final DMSO at 1% and 10 μL of 20 uM ODN2006 in above DMEM, perform incubation under 37° C. in a CO2 incubator for 20 hrs. Then 20 μL of the supernatant from each well was incubated with 180 μL Quanti-blue substrate solution at 37° C. for 2 hrs and the absorbance was read at 620˜655 nm using a spectrophotometer. The signalling pathway that TLR9 activation leads to downstream NF-κB activation has been widely accepted, and therefore similar reporter assay was modified for evaluating TLR9 antagonist.
`C[C@@H]1CN(c2ccc(C(F)(F)F)c3ncccc23)C[C@H](C(=O)NC2CC3COCC(C2)N3)O1` (stereo partly drawn) [Example 33, (2R,6R)-6-methyl-N-(3-oxa-9-azabicyclo[3.3.1]nonan-7-yl)-4-[8-(trifluoromethyl)-5-quinolyl]morpholine-2-carboxamide] gave a concentration for half-maximal inhibition (IC50) of 23.6 µM.

Compound `C[C@@H]1CN(c2ccc(C(F)(F)F)c3ncccc23)C[C@H](C(=O)N2CCC3(CCNCC3)CC2)O1` [Example 32, 3,9-diazaspiro[5.5]undecan-3-yl-[(2R,6R)-6-methyl-4-[8-(trifluoromethyl)-5-quinolyl]morpholin-2-yl]methanone] had an IC50 of 3.7 µM.

Compound `C[C@@H]1CN(c2ccc(C(F)(F)F)c3ncccc23)C[C@H](C(=O)NCC2CNCCO2)O1` (stereo partly drawn) [Example 48, (2R,6R)-6-methyl-N-(morpholin-2-ylmethyl)-4-[8-(trifluoromethyl)-5-quinolyl]morpholine-2-carboxamide] came in with a half-maximal inhibitory concentration (IC50) of 11.7 µM.

Compound `CC(NC(=O)[C@H]1CN(c2ccc(C(F)(F)F)c3ncccc23)C[C@@H](C)O1)C1CN(C)CCO1` (single isomer, unassigned) [Example 35A] registered a half-inhibitory concentration (IC50) of 42.7 µM.

As to `C[C@@H]1CN(c2ccc([N+](=O)[O-])c3ncccc23)C[C@H](C(=O)NCC2CN(C)CCO2)O1` (stereo partly drawn) [Example 18, (2R,6R)-6-methyl-N-[(4-methylmorpholin-2-yl)methyl]-4-(8-nitro-5-quinolyl)morpholine-2-carboxamide], 54.8 µM corresponded to half-maximal inhibition (IC50).

On to `C[C@@H]1CN(c2ccc(C(F)(F)F)c3ncccc23)C[C@H](C(=O)NC2C3CCCC2CNC3)O1` (stereo partly drawn) [Example 45, (2R,6R)-N-(3-azabicyclo[3.3.1]nonan-9-yl)-6-methyl-4-[8-(trifluoromethyl)-5-quinolyl]morpholine-2-carboxamide], for which inhibition was half-maximal at 11.6 µM (IC50).

In turn, `C[C@@H]1CN(c2ccc(C(F)(F)F)c3ncccc23)C[C@H](C(=O)NCC2CN(C)CCO2)O1` (stereo partly drawn) [Example 3, (2R,6R)-6-methyl-N-[(4-methylmorpholin-2-yl)methyl]-4-[8-(trifluoromethyl)-5-quinolyl]morpholine-2-carboxamide] gave an IC50 of 81.9 µM.

As for `C[C@@H]1CN(c2ccc(C(F)(F)F)c3ncccc23)C[C@H](C(=O)NCC2CCCCN2C)O1` (stereo partly drawn) [Example 4, (2R,6R)-6-methyl-N-[(1-methyl-2-piperidyl)methyl]-4-[8-(trifluoromethyl)-5-quinolyl]morpholine-2-carboxamide], it took 11.4 µM to reach half-maximal inhibition (IC50).

Compound `C[C@@H]1CN(c2ccc(C(F)(F)F)c3ncccc23)C[C@H](C(=O)NC2C3CNCC2COC3)O1` (single isomer, unassigned) [Example 46B] registered an IC50 of 15.3 µM.

Compound `C[C@@H]1CN(c2ccc(C(F)(F)F)c3ncccc23)C[C@H](C(=O)NC2CN(C)CC23CC3)O1` (stereo partly drawn) [Example 9, (2R,6R)-6-methyl-N-(5-methyl-5-azaspiro[2.4]heptan-7-yl)-4-[8-(trifluoromethyl)-5-quinolyl]morpholine-2-carboxamide] had an IC50 of 10.9 µM.

`C[C@@H]1CN(c2ccc(Br)c3ncccc23)C[C@H](C(=O)NC2CCN(C)CC2)O1` [Example 42, (2R,6R)-4-(8-bromo-5-quinolyl)-6-methyl-N-(1-methyl-4-piperidyl)morpholine-2-carboxamide] showed an IC50 of 10.6 µM.

The compound `C[C@@H]1CN(c2ccc(C(F)(F)F)c3ncccc23)C[C@H](C(=O)NC2CC3CCC(C2)N3)O1` (single isomer, unassigned) [Example 47B] displayed a half-inhibitory concentration (IC50) of 10.5 µM.

In turn, `C[C@@H]1CN(c2ccc(C(F)(F)F)c3ncccc23)C[C@H](C(=O)N2CCC3(CCNC3)C2)O1` (some centres unmarked) [Example 36] yielded a half-maximal inhibitory concentration (IC50) of 12.3 µM.

`Cc1ccc(N2C[C@@H](C)C[C@@H](N)C2)c2cccnc12` [Example 15, (3R,5S)-5-methyl-1-(8-methyl-5-quinolyl)piperidin-3-amine] had a 50% inhibitory concentration (IC50) of 14 µM.

Consider `C[C@@H]1CN(c2ccc(C(F)(F)F)c3ncccc23)C[C@H](C(=O)NCC2COCCN2C)O1` (stereo partly drawn) [Example 11, (2R,6R)-6-methyl-N-[(4-methylmorpholin-3-yl)methyl]-4-[8-(trifluoromethyl)-5-quinolyl]morpholine-2-carboxamide], for which the IC50 is above 100 µM.

The compound `C[C@@H]1CN(c2ccc(C(F)(F)F)c3ncccc23)C[C@H](C(=O)NCC2CNCC2(F)F)O1` (stereo partly drawn) [Example 29, (2R,6R)-N-[(4,4-difluoropyrrolidin-3-yl)methyl]-6-methyl-4-[8-(trifluoromethyl)-5-quinolyl]morpholine-2-carboxamide] had an IC50 above 100 µM.

In the case of `CC(NC(=O)[C@H]1CN(c2ccc(C(F)(F)F)c3ncccc23)C[C@@H](C)O1)C1CN(C)CCO1` (single isomer, unassigned) [Example 35B], the midpoint of inhibition, the IC50, lay at 50.2 µM.

`C[C@@H]1CN(c2ccc(C(F)(F)F)c3ncccc23)C[C@H](C(=O)NC2C3CNCC2COC3)O1` (single isomer, unassigned) [Example 46A] showed an IC50 of 23 µM.

Turning to `C[C@@H]1CN(c2ccc(C(F)(F)F)c3ncccc23)C[C@H](C(=O)NC2C[C@H]3C[C@@H]2CN3)O1` (some centres unmarked) [Example 44], the half-inhibitory concentration (IC50) was 15.7 µM.

Turning to `C[C@@H]1CN(c2ccc(Br)c3ncccc23)C[C@H](C(=O)NC2CNCC2F)O1` (stereo partly drawn) [Example 41, cis-(2R,6R)-4-(8-bromo-5-quinolyl)-N-[4-fluoropyrrolidin-3-yl]-6-methyl-morpholine-2-carboxamide], half-maximal inhibition (IC50) was put at 23.2 µM.

For `C[C@@H]1CN(c2ccc(C(F)(F)F)c3ncccc23)C[C@H](C(=O)NC2CC3CNCC(C3)C2)O1` (stereo partly drawn) [Example 37, (2R,6R)-N-(3-azabicyclo[3.3.1]nonan-7-yl)-6-methyl-4-[8-(trifluoromethyl)-5-quinolyl]morpholine-2-carboxamide], the half-maximal inhibitory concentration (IC50) was 7.8 µM.

In turn, `C[C@@H]1CN(c2ccc(C(F)(F)F)c3ncccc23)C[C@H](C(=O)NC[C@@H]2CC(F)(F)CN2)O1` [Example 30] showed a 50% inhibitory concentration (IC50) above 100 µM.

For `C[C@@H]1CN(c2ccc(C(F)(F)F)c3ncccc23)C[C@H](C(=O)NC2CNCC(F)(F)C2)O1` (stereo partly drawn) [Example 28, (2R,6R)-N-(5,5-difluoro-3-piperidyl)-6-methyl-4-[8-(trifluoromethyl)-5-quinolyl]morpholine-2-carboxamide], the IC50 is above 100 µM.

`Cc1ccc(N2C[C@@H](C)O[C@@H](C(=O)N[C@@H]3CNC[C@@H]3F)C2)c2cccnc12` [Example 21, cis-(2R,6R)-N-14-fluoropyrrolidin-3-yl1-6-methyl-4-(8-methyl-5-quinolyl)morpholine-2carboxamide] had a 50% inhibitory concentration (IC50) of 38 µM.

With `C[C@@H]1CN(c2ccc(C(F)(F)F)c3ncccc23)C[C@H](C(=O)NCCN2CCOCC2)O1` [Example 13, (2R,6R)-6-methyl-N-(2-morpholinoethyl)-4-[8-(trifluoromethyl)-5-quinolyl]morpholine-2-carboxamide], the IC50 is above 100 µM.

Compound `C[C@@H]1CN(c2ccc([N+](=O)[O-])c3ncccc23)C[C@H](C(=O)NC2CCN(C)CC2)O1` [Example 20, (2R,6R)-6-methyl-N-(1-methyl-4-piperidyl)-4-(8-nitro-5-quinolyl)morpholine-2-carboxamide] yielded a 50% inhibitory concentration (IC50) of 14.9 µM.
